Measurements taken from PubChem BioAssay AID248 (DTP/NCI, 2004).
Values joined by “and” are separate entries in the source; they are usually repeats but may differ in a detail not shown here. Equal entries are not always repeated. Inconclusive results and toxic doses are left out. Rule as the data show it: active = T/C of 150% or more; inactive = T/C below 125%.

Tested on: L1210 leukemia ip in BDF1 mice, survival T/C
Assay: NCI In Vivo Anticancer Drug Screen. Data for tumor model L1210 Leukemia (intraperitoneal) in B6D2F1 (BDF1) mice
Conditions: endpoint: mean survival time, higher = longer survival
Method in brief: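 Mice bearing the transplanted tumor received compound or vehicle. Survival of the treated group was divided by that of the vehicle-treated control group to give the ratio.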

[1] = dose: 100.0 mg/kg/injection, schedule: Q01DX001 (ip), vehicle: saline
[2] = dose: 200.0 mg/kg/injection, schedule: Q01DX001 (ip), vehicle: saline
[3] = dose: 400.0 mg/kg/injection, schedule: Q01DX001 (ip), vehicle: saline
[4] = dose: 50.0 mg/kg/injection, schedule: Q01DX001 (ip), vehicle: saline
[5] = dose: 100.0 mg/kg/injection, schedule: Q04DX003 (ip), vehicle: Klucel (hydroxypropylcellulose) (HPC)
[6] = dose: 200.0 mg/kg/injection, schedule: Q04DX003 (ip), vehicle: Klucel (hydroxypropylcellulose) (HPC)
[7] = dose: 400.0 mg/kg/injection, schedule: Q04DX003 (ip), vehicle: Klucel (hydroxypropylcellulose) (HPC)
[8] = dose: 100.0 mg/kg/injection, schedule: Q01DX001 (ip), vehicle: carboxymethylcellulose (CMC)
[9] = dose: 200.0 mg/kg/injection, schedule: Q01DX001 (ip), vehicle: carboxymethylcellulose (CMC)
[10] = dose: 400.0 mg/kg/injection, schedule: Q01DX001 (ip), vehicle: carboxymethylcellulose (CMC)
[11] = dose: 100.0 mg/kg/injection, schedule: Q01DX009 (ip), vehicle: saline
[12] = dose: 100.0 mg/kg/injection, schedule: Q04DX003 (ip), vehicle: saline
[13] = dose: 200.0 mg/kg/injection, schedule: Q01DX009 (ip), vehicle: saline
[14] = dose: 200.0 mg/kg/injection, schedule: Q04DX003 (ip), vehicle: saline
[15] = dose: 400.0 mg/kg/injection, schedule: Q01DX009 (ip), vehicle: saline
[16] = dose: 400.0 mg/kg/injection, schedule: Q04DX003 (ip), vehicle: saline
[17] = dose: 100.0 mg/kg/injection, schedule: Q01DX001 (ip), vehicle: other
[18] = dose: 200.0 mg/kg/injection, schedule: Q01DX001 (ip), vehicle: other
[19] = dose: 400.0 mg/kg/injection, schedule: Q01DX001 (ip), vehicle: other
[20] = dose: 100.0 mg/kg/injection, schedule: Q04DX002 (ip), vehicle: gum acacia
[21] = dose: 200.0 mg/kg/injection, schedule: Q04DX002 (ip), vehicle: gum acacia
[22] = dose: 400.0 mg/kg/injection, schedule: Q04DX002 (ip), vehicle: gum acacia

Measured: T/C

C/C=C1\CN(C(=O)C(NC(=O)C(N)C(O)C(O)COC(N)=O)C2OC(n3cc(CO)c(=O)[nH]c3=O)C(O)C2O)C1C(=O)O (stereo not given) (tested in a mixture with another compound)
inactive: [1] 95 % of control | [2] 106 % of control | [3] 105 % of control

O=C1c2cccc([N+](=O)[O-])c2C(=O)N1c1ncn[nH]1
inactive: dose: 44.0 mg/kg/injection, schedule: Q01DX001 (ip), vehicle: saline 93 % of control and 92 % of control | [4] 100 % of control | dose: 66.0 mg/kg/injection, schedule: Q01DX001 (ip), vehicle: saline 93 % of control and 102 % of control | [1] 95 % of control and 92 % of control | dose: 150.0 mg/kg/injection, schedule: Q01DX001 (ip), vehicle: saline 98 % of control | [2] 111 % of control | [3] 91 % of control

Cc1cccc(-c2nnc(C(Cl)(Cl)Cl)o2)c1
inactive: [5] 106 % of control | [6] 97 % of control | [7] 97 % of control

O=C(O)C(O)c1cccc(Cl)c1 (stereo not given)
inactive: dose: 75.0 mg/kg/injection, schedule: Q01DX001 (ip), vehicle: acetone 94 % of control | dose: 150.0 mg/kg/injection, schedule: Q01DX001 (ip), vehicle: acetone 94 % of control

CCCCC(=O)N/N=C/c1c(O)ccc2ccccc12
inactive: [1] 94 % of control | [2] 94 % of control | [3] 92 % of control

O=C(O)/C(S)=C/c1ccc2c(c1)OCO2
inactive: [8] 100 % of control | [9] 102 % of control | [10] 102 % of control

CC(O)C(F)(F)C(F)(F)C(F)(F)C(C)O (stereo not given)
inactive: [11] 97 % of control | [12] 102 % of control | [13] 104 % of control | [14] 96 % of control | [15] 109 % of control | [16] 96 % of control

CC([NH-])C(=O)O.O=C(O)CN(CC(=O)O)CC(=O)O.[Co+2]
inactive: dose: 50.0 mg/kg/injection, schedule: Q01DX009 (ip), vehicle: saline 110 % of control | [11] 103 % of control | [12] 104 % of control | [13] 93 % of control | [14] 106 % of control | [16] 100 % of control

Cc1ccc(C(=O)/C=C/c2ccc3c(c2)OCO3)c(C)c1
inactive: dose: 100.0 mg/kg/injection, schedule: Q04DX002 (ip), vehicle: DMSO 103 % of control | dose: 200.0 mg/kg/injection, schedule: Q04DX002 (ip), vehicle: DMSO 93 % of control | dose: 400.0 mg/kg/injection, schedule: Q04DX002 (ip), vehicle: DMSO 103 % of control

CC(O)C(O)C(O)C(O)/C=N/O (stereo not given)
inactive: [5] 100 % of control | [6] 97 % of control | [7] 102 % of control

Cc1cc(N=[N+]([O-])c2ccc(N)c(C)c2)ccc1N
inactive: [1] 95 % of control | [2] 91 % of control | [13] 96 % of control | [3] 93 % of control | [15] 96 % of control

CCCCCCC(CO)CCCC (stereo not given)
inactive: [5] 97 % of control | [6] 97 % of control | [7] 100 % of control

CC(=O)C(CCl)C(C)=O
inactive: dose: 50.0 mg/kg/injection, schedule: Q01DX001 (ip), vehicle: other 102 % of control | [17] 96 % of control | [18] 96 % of control | [19] 96 % of control

CC(C(=O)O)(c1ccccc1)c1ccccc1
inactive: [20] 101 % of control | [21] 96 % of control | [22] 96 % of control

CSC1=NCCN1
inactive: [11] 104 % of control | [13] 100 % of control | [15] 104 % of control

COc1cc(C=O)ccc1OC(=O)Nc1cccc(C(C)=O)c1
inactive: dose: 100.0 mg/kg/injection, schedule: Q01DX009 (ip), vehicle: Klucel (hydroxypropylcellulose) (HPC) 96 % of control | dose: 200.0 mg/kg/injection, schedule: Q01DX009 (ip), vehicle: Klucel (hydroxypropylcellulose) (HPC) 92 % of control

COc1cc(C(=O)c2ccccc2C(=O)O)c(OC)c2c1CCCC2
inactive: [8] 91 % of control | [9] 92 % of control | [10] 96 % of control

NC(=O)c1cccc[n+]1Cc1cc(=O)[nH]c(=O)[nH]1
inactive: [12] 93 % of control | [14] 101 % of control | [16] 89 % of control

CCOC(=O)CN(CC)CC(=O)OCC
inactive: dose: 75.0 mg/kg/injection, schedule: Q01DX009 (ip), vehicle: saline with Tween-80 107 % of control | dose: 100.0 mg/kg/injection, schedule: Q04DX003 (ip), vehicle: saline with Tween-80 93 % of control | dose: 150.0 mg/kg/injection, schedule: Q01DX009 (ip), vehicle: saline with Tween-80 107 % of control | dose: 200.0 mg/kg/injection, schedule: Q04DX003 (ip), vehicle: saline with Tween-80 98 % of control | dose: 300.0 mg/kg/injection, schedule: Q01DX009 (ip), vehicle: saline with Tween-80 109 % of control | dose: 400.0 mg/kg/injection, schedule: Q04DX003 (ip), vehicle: saline with Tween-80 101 % of control

N#CCc1ccc2c(c1)[nH]c1ccccc12
inactive: [5] 100 % of control | [6] 100 % of control | [7] 105 % of control

Oc1ccc(N=Cc2ccccc2O)cc1.[Co]
inactive: [17] 98 % of control | [18] 94 % of control | [19] 102 % of control

COC1N(c2ccccc2)CCN1c1ccccc1
inactive: [20] 109 % of control | [21] 106 % of control | [22] 106 % of control

CCCSc1ccc(N2C(N)=NC(N)=NC2(C)C)cc1
inactive: dose: 12.5 mg/kg/injection, schedule: Q01DX001 (ip), vehicle: saline 98 % of control | dose: 12.5 mg/kg/injection, schedule: Q04DX003 (ip), vehicle: saline 98 % of control | dose: 18.75 mg/kg/injection, schedule: Q01DX009 (ip), vehicle: saline with Tween-80 101 % of control | dose: 25.0 mg/kg/injection, schedule: Q01DX001 (ip), vehicle: saline 108 % of control | dose: 25.0 mg/kg/injection, schedule: Q04DX003 (ip), vehicle: saline 93 % of control | dose: 37.5 mg/kg/injection, schedule: Q01DX009 (ip), vehicle: saline with Tween-80 96 % of control | [4] 108 % of control | dose: 50.0 mg/kg/injection, schedule: Q04DX003 (ip), vehicle: saline 104 % of control | dose: 75.0 mg/kg/injection, schedule: Q04DX003 (ip), vehicle: saline 97 % of control

NC(=O)C1=C(N)c2ccccc2C1c1ccccc1 (stereo not given)
inactive: [1] 101 % of control | [2] 97 % of control | [3] 97 % of control

C1CC(C2OCOC3COCOC32)OO1 (stereo not given)
inactive: dose: 222.0 mg/kg/injection, schedule: Q01DX Z (ip), vehicle: methylcellulose (MC) 89 % of control | dose: 333.0 mg/kg/injection, schedule: Q01DX Z (ip), vehicle: methylcellulose (MC) 104 % of control | dose: 500.0 mg/kg/injection, schedule: Q01DX Z (ip), vehicle: methylcellulose (MC) 92 % of control
